Data on 2 compounds can be found in publication PMC9405102, “Targeted Modification and Structure-Activity Study of GL-29, an Analogue of the Antimicrobial Peptide Palustrin-2ISb” (Antibiotics, 2022).

≈ marks a conversion by molar mass, not a printed value. Where a SMILES comes first, the peptide text is derived from it. Where no end group is shown, it is not given here.

Data set [1] relates to Galleria mellonella larvae (waxworms). Description: Toxicity of peptide in larvae in vivo. The conditions noted are these: uninfected larvae. As for the experimental part: In this assay, Galleria mellonella larvae (waxworms) (Livefood UK Ltd., Rooks Bridge, UK) were used as an infection model to investigate the antimicrobial potency of peptides against S. aureus, which was described in a previous study in detail (Yuan et al., 2019). The larvae, weights between 225 mg and 275 mg, were selected, and nine larvae were stored in a separate Petri dish as a group and they were divided into several groups. Then, 10 µL of the peptide solution at final concentrations of 8 µM and 16 µM, respectively, and 10 µL of PBS were injected into larvae to test the toxicity of peptides and PBS solution. Afterwards, 10 μL of the bacterial suspension in PBS (5 × 10^7 CFU/mL) were injected into larvae. All the infected larvae were ensured to be alive after 2 h of the injection, followed by the treatment with 10 μL of the peptide solution to reach final concentrations of 2, 4 and 8 μM, respectively. The negative control was treated with the same volume of PBS, and the positive control was dosed with the same volume of 20 mg/kg vancomycin (Sigma-Aldrich, UK). The number of living larvae was counted every 24 h for 5 days, except the first day of 12 h.

Data set [2] relates to Staphylococcus aureus (S. aureus). More on the design: method as in PMID 21911019. The conditions noted are these: cited from earlier work.
The test system of data set [3] is C. albicans. More on the design: method as in PMID 21911019. The conditions noted are these: C. albicans; cited from earlier work.

On to GLWNSIKIAGKKLFVNVLDKIR-NH2 [GL-22], for which the values for the toxicity against larvae entry in data set [1] (2 × MIC (20 mg/kg)) and in data set [1] (4 × MIC (40 mg/kg)) were “no toxicity” and “high toxicity”, respectively.
Usually MIC stands for the least concentration at which growth counts as inhibited. Take `CC[C@H](C)[C@H](NC(=O)[C@H](CCCCN)NC(=O)[C@@H](NC(=O)[C@H](CO)NC(=O)[C@H](CC(N)=O)NC(=O)[C@H](Cc1c[nH]c2ccccc12)NC(=O)[C@H](CC(C)C)NC(=O)CN)[C@@H](C)CC)C(=O)N[C@@H](C)C(=O)NCC(=O)N[C@@H](CCCCN)C(=O)N[C@@H](CCCCN)C(=O)N[C@@H](CC(C)C)C(=O)N[C@@H](Cc1ccccc1)C(=O)N[C@H](C(=O)N[C@@H](CC(N)=O)C(=O)N[C@H](C(=O)N[C@@H](CC(C)C)C(=O)N[C@@H](CC(=O)O)C(=O)N[C@@H](CCCCN)C(=O)N[C@H](C(=O)N[C@@H](CCCNC(=N)N)C(=O)N[C@H]1CSSC[C@@H](C(=O)O)NC(=O)CNC(=O)CNC(=O)[C@H](C)NC(=O)[C@H](C(C)C)NC(=O)[C@H](CCCCN)NC1=O)[C@@H](C)CC)C(C)C)C(C)C` [GL-29] (HELM PEPTIDE1{G.L.W.N.S.I.K.I.A.G.K.K.L.F.V.N.V.L.D.K.I.R.C.K.V.A.G.G.C}$PEPTIDE1,PEPTIDE1,23:R3-29:R3$$$V2.0; N-terminus and C-terminus assumed; bridges inferred): the MIC in data set [2] was 6.3 µM (≈ 19.7 µg/mL); in data set [3], 100 µM (≈ 313 µg/mL).
